Our source for the solubility values is patent US6610670B2, “Cyclodextrin-drospirenone inclusion complexes” (Schering Aktiengesellschaft, priority 2000, dated 2003).

What is called solubility is the dissolved amount per volume that the medium holds.

The series is described as follows: Phase solubility diagram technique (PSD) in aqueous solutions at 20° C. Particulars: water, thermodynamic from solid, aqueous solution. The format is physicochemical. The protocol:
The following data were obtained with the phase solubility diagram technique (PSD) In aqueous solutions at 20° C. The stability constants of the inclusion compound from β-CD and drospirenone are given.

Structures are written as SMILES.

On to `C[C@]12CCC(=O)C=C1[C@@H]1C[C@@H]1[C@H]1[C@@H]3[C@@H]4C[C@@H]4[C@@]4(CCC(=O)O4)[C@@]3(C)CC[C@@H]12` [Drospirenone, 6β,7β;15β,16β-dimethylene-3-oxo-17α-pregn-4-ene-21,17-carbolactone], for which the solubility amounted to 41.4 µM. The solubility (value in parentheses) was 15.1 µg/mL.
